We go through three molecules from patent US20230398130A1, “METHODS AND COMPOSITIONS FOR DIFFERENTIATING STEM CELLS” (Massachusetts Institute of Technology, priority 2020, published 2023).

Experiment [1] has as its system ISC-enriched organoids. Kind of experiment: Primary screen, 384-well 2.5-D organoid differentiation (ENR+CD, 6 days): basal lysozyme secretion (LYZ.NS). The following applies: for Dose.FC.LYZ.NS: primary screen, FC vs plate median; for Z.LYZ.NS: standard z score of FC. In kind it is cell-based, murine. An excerpt:
(§1) High-throughput screening.

Experiment [2] relates to ISC-enriched organoids. Kind of experiment: Primary screen, 384-well 2.5-D organoid differentiation (ENR+CD, 6 days): carbachol-induced lysozyme secretion (LYZ.S). The conditions noted are these: primary screen, FC vs plate median. It is filed as cell-based, murine.
Text: as §1

The subject of experiment [3] is ISC-enriched organoids. Put plainly: Primary screen, 384-well 2.5-D organoid differentiation (ENR+CD, 6 days, Target Selective Inhibitor Library, vs whole-plate median): ATP (CellTiter-Glo 3D, CTG). The following applies: for Dose.FC.CTG: primary screen, FC vs plate median; for Z.CTG: standard z score of FC.

As to `C1=N/C2=N/c3ccc(OCCN4CCCC4)c(c3)COC/C=C/COCc3cccc(c3)C(=C1)N2` [Pacritinib (SB1518)], the Dose.FC.LYZ.NS in the experiment on ISC-enriched organoids [1] (Dose 0.08 uM) is 0.091 log 2 fold change; in the experiment on ISC-enriched organoids [1] (Dose 0.40 uM), −0.034 log 2 fold change; with ISC-enriched organoids [1] (Dose 2.00 uM), −0.219 log 2 fold change; in the experiment with ISC-enriched organoids [1] (Dose 10.00 uM), −0.275 log 2 fold change. The Z.LYZ.NS in the experiment with ISC-enriched organoids [1] (Dose 0.08 uM) was 0.795; in the experiment on ISC-enriched organoids [1] (Dose 0.40 uM), −0.299; in the experiment on ISC-enriched organoids [1] (Dose 2.00 uM), −1.908; in the experiment with ISC-enriched organoids [1] (Dose 10.00 uM) it was −2.391. Moreover, the Dose.FC.LYZ.S in the experiment on ISC-enriched organoids [2] (Dose 0.08 uM) was 0.066 log 2 fold change; in the experiment on ISC-enriched organoids [2] (Dose 0.40 uM), −0.032 log 2 fold change; in the experiment with ISC-enriched organoids [2] (Dose 2.00 uM) it was −0.304 log 2 fold change; in the experiment on ISC-enriched organoids [2] (Dose 10.00 uM), −0.419 log 2 fold change. The Dose.FC.CTG with ISC-enriched organoids [3] (Dose 0.08 uM) is −0.006 log 2 fold change; in the experiment with ISC-enriched organoids [3] (Dose 0.40 uM), 0.099 log 2 fold change; with ISC-enriched organoids [3] (Dose 2.00 uM), −0.235 log 2 fold change; with ISC-enriched organoids [3] (Dose 10.00 uM) it was −1.276 log 2 fold change. The Z.CTG with ISC-enriched organoids [3] (Dose 0.08 uM) was −0.014; in the experiment with ISC-enriched organoids [3] (Dose 0.40 uM) it was 0.236; in the experiment on ISC-enriched organoids [3] (Dose 2.00 uM), −0.560; in the experiment on ISC-enriched organoids [3] (Dose 10.00 uM), −3.047.

For the molecule `CC(=O)c1c(C)c2cnc(Nc3ccc(N4CCNCC4)cn3)nc2n(C2CCCC2)c1=O.Cl` [Palbociclib (PD-0332991) HCl], the Dose.FC.LYZ.NS in the experiment on ISC-enriched organoids [1] (Dose 0.08 uM) was −0.006 log 2 fold change; with ISC-enriched organoids [1] (Dose 0.40 uM), −0.029 log 2 fold change; in the experiment on ISC-enriched organoids [1] (Dose 2.00 uM), −0.051 log 2 fold change; with ISC-enriched organoids [1] (Dose 10.00 uM), −0.132 log 2 fold change. Also, the Z.LYZ.NS in the experiment on ISC-enriched organoids [1] (Dose 0.08 uM) is −0.055; with ISC-enriched organoids [1] (Dose 0.40 uM), −0.248; in the experiment on ISC-enriched organoids [1] (Dose 2.00 uM), −0.440; in the experiment on ISC-enriched organoids [1] (Dose 10.00 uM), −1.150. Also, the Dose.FC.LYZ.S with ISC-enriched organoids [2] (Dose 0.08 uM) is recorded as 0.004 log 2 fold change; in the experiment with ISC-enriched organoids [2] (Dose 0.40 uM), −0.042 log 2 fold change; in the experiment on ISC-enriched organoids [2] (Dose 2.00 uM), −0.122 log 2 fold change; in the experiment on ISC-enriched organoids [2] (Dose 10.00 uM), −0.203 log 2 fold change. Further, the Dose.FC.CTG in the experiment with ISC-enriched organoids [3] (Dose 0.08 uM) is on record as 0.169 log 2 fold change; in the experiment with ISC-enriched organoids [3] (Dose 0.40 uM), −0.350 log 2 fold change; in the experiment on ISC-enriched organoids [3] (Dose 2.00 uM), −0.083 log 2 fold change; in the experiment with ISC-enriched organoids [3] (Dose 10.00 uM), −0.677 log 2 fold change. For the same molecule, the Z.CTG in the experiment with ISC-enriched organoids [3] (Dose 0.08 uM) is 0.404; in the experiment on ISC-enriched organoids [3] (Dose 0.40 uM), −0.836; in the experiment on ISC-enriched organoids [3] (Dose 2.00 uM), −0.199; in the experiment on ISC-enriched organoids [3] (Dose 10.00 uM), −1.617.

In the case of `CC(=O)O[C@H]1C[C@@H]2CC[C@@H]3[C@H](CC[C@@]4(C)[C@H]3C[C@H]([N+]3(C)CCCCC3)[C@@H]4OC(C)=O)[C@@]2(C)C[C@@H]1[N+]1(C)CCCCC1.[Br-].[Br-]` [Pancuronium dibromide], the Dose.FC.LYZ.NS with ISC-enriched organoids [1] (Dose 0.08 uM) is recorded as 0.128 log 2 fold change; with ISC-enriched organoids [1] (Dose 0.40 uM) it was 0.047 log 2 fold change; in the experiment with ISC-enriched organoids [1] (Dose 2.00 uM), 0.093 log 2 fold change; with ISC-enriched organoids [1] (Dose 10.00 uM), 0.035 log 2 fold change. Further, the Z.LYZ.NS with ISC-enriched organoids [1] (Dose 0.08 uM) amounted to 1.118; in the experiment on ISC-enriched organoids [1] (Dose 0.40 uM), 0.406; with ISC-enriched organoids [1] (Dose 2.00 uM) it was 0.806; in the experiment on ISC-enriched organoids [1] (Dose 10.00 uM), 0.302. Also, the Dose.FC.LYZ.S was determined as 0.213 log 2 fold change in the experiment on ISC-enriched organoids [2] (Dose 0.08 uM), 0.094 log 2 fold change in the experiment on ISC-enriched organoids [2] (Dose 0.40 uM), 0.099 log 2 fold change with ISC-enriched organoids [2] (Dose 2.00 uM) and 0.004 log 2 fold change in the experiment with ISC-enriched organoids [2] (Dose 10.00 uM). In addition, the Dose.FC.CTG in the experiment on ISC-enriched organoids [3] (Dose 0.08 uM) is reported as 0.217 log 2 fold change; in the experiment on ISC-enriched organoids [3] (Dose 0.40 uM) it was 0.226 log 2 fold change; in the experiment on ISC-enriched organoids [3] (Dose 2.00 uM) it was −0.012 log 2 fold change; in the experiment with ISC-enriched organoids [3] (Dose 10.00 uM), 0.062 log 2 fold change. In addition, the Z.CTG in the experiment with ISC-enriched organoids [3] (Dose 0.08 uM) is on record as 0.519; in the experiment on ISC-enriched organoids [3] (Dose 0.40 uM), 0.541; in the experiment on ISC-enriched organoids [3] (Dose 2.00 uM), −0.029; in the experiment with ISC-enriched organoids [3] (Dose 10.00 uM), 0.148.
